Columns and labels:
[1] = system: Plasmopara viticola; assay: whole plant or invertebrate; format: in vivo; conditions: foliar, read-out: control of Plasmopara viticola compared to untreated control
[2] = system: Pythium ultimum; assay: Pythium ultimum / liquid culture (seedling damping off); format: cell-based; conditions: Globisporangium ultimum, liquid culture in PDB, 24 °C, 2-3 days after application, read-out: control of Pythium ultimum (inhibition of growth, photometric) compared to untreated control
Summary of the method: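 Mycelia fragments and oospores from fresh liquid culture mixed into potato dextrose broth and added to compound in DMSO. Incubated at 24° C.; growth inhibition read photometrically 2–3 days after application.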

[3] = system: Phytophthora infestans; assay: whole plant or invertebrate; format: in vivo; conditions: in Solanum lycopersicum, foliar, read-out: control of Phytophthora infestans compared to untreated control

SMILES	pest or weed control at 200 ppm [1]	inhibition at 20 ppm [2]	pest or weed control at 200 ppm [3]
CC(=O)Nc1ccc(-c2cnc3ccc(C(=O)N(C)c4ccc(Cl)cc4)cn23)cc1 [Compound 1, 3-(4-acetamidophenyl)-N-(4-chlorophenyl)-N-methyl-imidazo[1,2-a]pyridine-6-carboxamide]	≥ 80%	≥ 80%	–
COC(=O)Nc1ccc(-c2cnc3ccc(C(=O)N(C)c4cccc(OC(F)F)c4)cn23)cc1 [Compound 9, methyl N-[4-[6-[[3-(difluoromethoxy)phenyl]-methyl-carbamoyl]imidazo[1,2-a]pyridin-3-yl]phenyl]carbamate]	≥ 80%	≥ 80%	–
COC(=O)Nc1ccc(-c2cnc3ccc(C(=O)N(C)c4cc(OC)cc(OC)c4)cn23)cn1 [Compound 58, methyl N-[5-[6-[(3,5-dimethoxyphenyl)-methyl-carbamoyl]imidazo[1,2-a]pyridin-3-yl]-2-pyridyl]carbamate]	≥ 80%	≥ 80%	–
COC(=O)Nc1ccc(-c2cnc3ccc(C(=O)N(C)c4ccccc4)cn23)cn1 [Compound 61, methyl N-[5-[6-[methyl(phenyl)carbamoyl]imidazo[1,2-a]pyridin-3-yl]-2-pyridyl]carbamate]	≥ 80%	≥ 80%	–
COC(=O)Nc1ccc(-c2cnc3ccc(C(=O)N(C)c4ccc(C)cc4)cn23)cn1 [Compound 64, methyl N-[5-[6-[methyl (p-tolyl)carbamoyl]imidazo [1,2-a]pyridin-3-yl]-2-pyridyl]carbamate]	≥ 80%	≥ 80%	–
CCC(=O)Nc1ccc(-c2cnc3ccc(C(=O)N(C)c4ccc(F)c(C)c4)cn23)cn1 [Compound 78, N-(4-fluoro-3-methyl-phenyl)-N-methyl-3-[6-(propanoylamino)-3-pyridyl]imidazo[1,2-a]pyridine-6-carboxamide]	≥ 80%	≥ 80%	–
CCCN(C(=O)c1ccc2ncc(-c3ccc(NC(=O)OC)nc3)n2c1)c1ccc(Cl)c(C)c1 [Compound 126, methyl N-[5-[6-[(4-chloro-3-methyl-phenyl)-propyl-carbamoyl]imidazo[1,2-a]pyridin-3-yl]-2-pyridyl]carbamate]	≥ 80%	≥ 80%	–
COC(=O)Nc1ccc(-c2cnc3ccc(C(=O)N(CCC#N)c4ccc(F)cc4)cn23)cn1 [Compound 132, methyl N-[5-[6-[2-cyanoethyl-(4-fluorophenyl)carbamoyl]imidazo [1,2-a]pyridin-3-yl]-2-pyridyl]carbamate]	–	≥ 80%	≥ 80%
CCN(C(=O)c1ccc2ncc(-c3ccc(NC(=O)OC)nc3)n2c1)c1ccccc1 [Compound 137, methyl N-[5-[6-[ethyl(phenyl)carbamoyl]imidazo[1,2-a]pyridin-3-yl]-2-pyridyl]carbamate]	≥ 80%	≥ 80%	–
COC(=O)Nc1ccc(-c2cnc3ccc(C(=O)N(c4ccc(F)cc4)C(C)C)cn23)cn1 [Compound 140, methyl N-[5-[6-[(4-fluorophenyl)-isopropyl-carbamoyl]imidazo[1,2-a]pyridin-3-yl]-2-pyridyl]carbamate]	–	≥ 80%	≥ 80%
CC(=O)Nc1ccc(-c2cnc3c(C)cc(C(=O)N(C)c4ccc(F)cc4)cn23)cn1 [Compound 168, 3-(6-acetamido-3-pyridyl)-N-(4-fluorophenyl)-N,8-dimethyl-imidazo[1,2-a]pyridine-6-carboxamide]	–	≥ 80%	≥ 80%
COCCN(C(=O)c1cc(C)c2ncc(-c3ccc(NC(=O)OC)nc3)n2c1)c1ccc(F)c(OC)c1 [Compound 177, methyl N-[5-[6-[(4-fluoro-3-methoxy-phenyl)-(2-methoxyethyl)carbamoyl]-8-methyl-imidazo[1,2-a]pyridin-3-yl]-2-pyridyl]carbamate]	≥ 80%	–	≥ 80%

— US20240425500A1 (priority 2021, published 2024)
